Data on 24 molecules can be found in US20090306133A1, “New Acetyl Coenzyme A Carboxylase (ACC) Inhibitors And Uses In Treatments Of Obesity And Diabetes Mellitus - 087” (ASTRAZENECA AB, priority 2007, published 2009).

Assay [1] addresses Human recombinant Acetyl-CoA Carboxylase 2 (ACC2) (Homo sapiens, UniProt O00763). Description: Assay Y: ACC2 inhibition, inorganic phosphate (Malachite Green). In kind it is biochemical. As to conditions: Assay Y: room temperature, 3 hr, 15 min preincubation. Put shortly: (§1)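 Enzyme preincubated with compound 15 min before substrate addition; reaction run 3 h, then phosphate detected with Malachite Green at 670 nm after 10 min at room temperature. Triplicate 10-point titrations; IC50 by non-linear four-parameter curve fitting.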

For assay [2], the target named is Human recombinant Acetyl-CoA Carboxylase 1 (ACC1) (Homo sapiens, UniProt Q13085). As to the kind of experiment: Assay Y: ACC1 inhibition, inorganic phosphate (Malachite Green). In kind it is biochemical. As to conditions: Assay Y: room temperature, 3 hr, 15 min preincubation. Summed up: as §1

pIC50: −log10 of the molar value.

Chain of Human recombinant Acetyl-CoA Carboxylase 2 (ACC2) (O00763 whole entry): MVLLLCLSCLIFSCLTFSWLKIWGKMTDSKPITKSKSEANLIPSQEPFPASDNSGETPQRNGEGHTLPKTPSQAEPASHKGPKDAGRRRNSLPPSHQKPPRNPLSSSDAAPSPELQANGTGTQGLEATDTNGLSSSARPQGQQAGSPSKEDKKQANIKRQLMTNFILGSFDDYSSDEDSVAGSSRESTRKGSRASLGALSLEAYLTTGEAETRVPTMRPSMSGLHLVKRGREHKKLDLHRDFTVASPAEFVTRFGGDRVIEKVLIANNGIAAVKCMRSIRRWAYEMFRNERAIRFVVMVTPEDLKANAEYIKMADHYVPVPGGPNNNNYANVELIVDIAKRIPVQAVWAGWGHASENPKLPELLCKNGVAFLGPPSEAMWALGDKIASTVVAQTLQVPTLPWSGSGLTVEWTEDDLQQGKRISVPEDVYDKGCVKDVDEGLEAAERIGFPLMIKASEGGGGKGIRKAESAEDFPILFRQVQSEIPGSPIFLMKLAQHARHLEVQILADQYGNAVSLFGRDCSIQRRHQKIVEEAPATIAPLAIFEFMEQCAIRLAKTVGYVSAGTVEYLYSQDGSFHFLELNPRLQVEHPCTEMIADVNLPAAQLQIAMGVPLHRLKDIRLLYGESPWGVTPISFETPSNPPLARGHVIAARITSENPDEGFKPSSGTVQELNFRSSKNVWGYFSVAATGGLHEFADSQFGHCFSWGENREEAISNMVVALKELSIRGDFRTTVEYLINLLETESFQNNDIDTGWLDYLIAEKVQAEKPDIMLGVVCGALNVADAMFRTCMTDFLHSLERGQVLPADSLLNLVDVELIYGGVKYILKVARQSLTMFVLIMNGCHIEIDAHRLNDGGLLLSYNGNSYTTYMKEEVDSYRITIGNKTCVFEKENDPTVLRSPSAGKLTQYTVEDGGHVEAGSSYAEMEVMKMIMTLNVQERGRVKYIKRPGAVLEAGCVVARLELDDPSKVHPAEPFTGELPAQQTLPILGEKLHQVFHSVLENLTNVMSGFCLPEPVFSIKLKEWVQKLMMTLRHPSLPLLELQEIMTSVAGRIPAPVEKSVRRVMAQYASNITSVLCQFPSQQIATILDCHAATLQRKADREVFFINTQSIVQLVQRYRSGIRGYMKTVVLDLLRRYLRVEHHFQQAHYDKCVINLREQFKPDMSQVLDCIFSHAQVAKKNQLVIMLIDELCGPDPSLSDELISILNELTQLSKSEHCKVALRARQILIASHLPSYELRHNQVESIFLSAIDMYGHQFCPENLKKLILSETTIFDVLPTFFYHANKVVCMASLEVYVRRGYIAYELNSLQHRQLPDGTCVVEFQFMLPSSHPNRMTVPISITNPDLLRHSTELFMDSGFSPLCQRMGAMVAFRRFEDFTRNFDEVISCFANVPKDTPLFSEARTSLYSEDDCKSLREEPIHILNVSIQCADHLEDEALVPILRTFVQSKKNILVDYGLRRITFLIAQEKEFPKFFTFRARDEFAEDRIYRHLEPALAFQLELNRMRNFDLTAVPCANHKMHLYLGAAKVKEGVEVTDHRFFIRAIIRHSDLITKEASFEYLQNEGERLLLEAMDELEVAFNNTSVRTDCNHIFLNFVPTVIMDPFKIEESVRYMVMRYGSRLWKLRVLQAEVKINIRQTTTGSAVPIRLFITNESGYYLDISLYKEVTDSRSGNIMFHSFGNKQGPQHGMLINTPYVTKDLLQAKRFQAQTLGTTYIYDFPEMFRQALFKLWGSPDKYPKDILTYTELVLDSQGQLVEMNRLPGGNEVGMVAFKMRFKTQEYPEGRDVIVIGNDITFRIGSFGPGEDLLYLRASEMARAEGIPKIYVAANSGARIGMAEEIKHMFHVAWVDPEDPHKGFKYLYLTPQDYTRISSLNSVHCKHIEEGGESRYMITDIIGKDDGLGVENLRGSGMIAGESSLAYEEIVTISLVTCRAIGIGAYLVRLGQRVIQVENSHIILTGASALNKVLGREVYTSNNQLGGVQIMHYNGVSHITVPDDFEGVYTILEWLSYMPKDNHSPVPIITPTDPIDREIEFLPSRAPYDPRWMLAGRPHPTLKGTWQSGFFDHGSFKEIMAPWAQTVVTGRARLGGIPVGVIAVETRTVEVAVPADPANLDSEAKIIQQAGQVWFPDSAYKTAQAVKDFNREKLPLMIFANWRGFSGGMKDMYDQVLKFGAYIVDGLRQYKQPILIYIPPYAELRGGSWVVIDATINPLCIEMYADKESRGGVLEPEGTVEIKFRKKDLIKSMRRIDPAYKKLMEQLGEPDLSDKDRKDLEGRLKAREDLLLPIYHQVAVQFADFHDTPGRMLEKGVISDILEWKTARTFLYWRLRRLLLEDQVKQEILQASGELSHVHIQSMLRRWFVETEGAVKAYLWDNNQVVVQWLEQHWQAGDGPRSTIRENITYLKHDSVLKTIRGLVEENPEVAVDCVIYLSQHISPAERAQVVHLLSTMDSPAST

Turning to `COC(=O)NCc1cccc(-c2cc(C(=O)NC[C@H]3CC[C@H](CNC(=O)OC(C)(C)C)CC3)c3ccccc3n2)c1` [Example 101, Methyl [3-(4-{[(trans-4-{[(tert-butoxycarbonyl)amino]methyl}cyclohexyl)methyl]-carbamoyl}quinolin-2-yl)benzyl]carbamate], the pIC50 in assay [1] was 6.82; in assay [2], 5.66.
Take `CC(C)(C)OC(=O)NC[C@H]1CC[C@H](CNC(=O)c2cc(-c3ccc(CCN)cc3)nc3ccccc23)CC1` [Example 102, tert-Butyl [(trans-4-{[({2-[4-(2-aminoethyl)phenyl]quinolin-4-yl}carbonyl)amino]-methyl}cyclohexyl)methyl]carbamate]: the negative-log IC50 (pIC50) was 7.70 in assay [1] and 6.77 in assay [2].
With `CC(=O)NCc1ccc(-c2cc(C(=O)NC[C@H]3CC[C@H](CNC(=O)OC(C)(C)C)CC3)c3ccccc3n2)cc1` [Example 103, tert-Butyl [(trans-4-{[({2-[4-(acetamidomethyl)phenyl]quinolin-4-yl}carbonyl)-amino]methyl}cyclohexyl)methyl]carbamate], the negative logarithm of the IC50 (pIC50) was 7.40 in assay [1] and 6.70 in assay [2].
Consider `COC(=O)NCc1ccc(-c2cc(C(=O)NC[C@H]3CC[C@H](CNC(=O)OC(C)(C)C)CC3)c3ccccc3n2)cc1` [Example 104, Methyl [4-(4-{[(trans-4-{[(tert-butoxycarbonyl)amino]methyl}cyclohexyl)methyl]-carbamoyl}quinolin-2-yl)benzyl]carbamate], for which the figures for the pIC50 in assay [1] and in assay [2] were 6.96 and 5.80, respectively.
`CC(C)(C)OC(=O)NC[C@H]1CC[C@H](CNC(=O)c2cc(-c3ccc(CNC(N)=O)cc3)nc3ccccc23)CC1` [Example 105, tert-Butyl {[trans-4-({[(2-{4-[(carbamoylamino)methyl]phenyl}quinolin-4-yl)carbonyl]amino}methyl)cyclohexyl]methyl}carbamate]: the pIC50 in assay [1] was 7.52; in assay [2], 6.96.
The like results for `CC(C)(C)OC(=O)NC[C@H]1CC[C@H](CNC(=O)c2cc(-c3ccc(CNS(C)(=O)=O)cc3)nc3ccccc23)CC1` [Example 106, tert-Butyl ({trans-4-[({[2-(4-{[(methylsulfonyl)amino]methyl}phenyl)quinolin-4-yl]carbonyl}amino)methyl]cyclohexyl}methyl)carbamate] were, in that order, 7.15 and 6.37.
The like results for `CC(C)(C)OC(=O)NC[C@H]1CC[C@H](CNC(=O)c2cc(-c3ccc(CC(=O)O)cc3)nc3ccccc23)CC1` [Example 107, [4-(4-{[(trans-4-{[(tert-Butoxycarbonyl)amino]methyl}cyclohexyl)methyl]-carbamoyl}quinolin-2-yl)phenyl]acetic Acid] were, in that order, 6.68 and 5.58.
The corresponding values for `CC(C)(C)OC(=O)NC[C@H]1CC[C@H](CNC(=O)c2cc(-c3cccc(C(=O)O)c3)nc3ccccc23)CC1` [Example 108, 3-(4-{[(trans-4-{[(tert-Butoxycarbonyl)amino]methyl}cyclohexyl)methyl]-carbamoyl}quinolin-2-yl)benzoic Acid] are 6.35 and 5.10.
Turning to `CN1CCN(c2ccc(-c3cc(C(=O)NC[C@H]4CC[C@H](CNC(=O)OC5CCOCC5)CC4)c4ccccc4n3)cn2)CC1` [Example 109, Tetrahydro-2H-pyran-4-yl [(trans-4-{[({2-[6-(4-methylpiperazin-1-yl)pyridin-3-yl]quinolin-4-yl}carbonyl)amino]methyl}cyclohexyl)methyl]carbamate], the negative-log IC50 (pIC50) was 6.68 in assay [1] and 5.77 in assay [2].
Turning to `CN1CCC(OC(=O)NC[C@H]2CC[C@H](CNC(=O)c3cc(-c4ccc(N5CCN(C)CC5)nc4)nc4ccccc34)CC2)CC1` [Example 110, 1-Methylpiperidin-4-yl-[(trans-4-{[({2-[6-(4-methylpiperazin-1-yl)pyridin-3-yl]quinolin-4-yl}carbonyl)amino]methyl}cyclohexyl)methyl]carbamate], the pIC50 in assay [1] was 5.36; in assay [2], less than 4.70.
The like results for `CN1CCN(c2ccc(-c3cc(C(=O)NC[C@H]4CC[C@H](CNC(=O)O[C@H]5CCOC5)CC4)c4ccccc4n3)cn2)CC1` [Example 116, (3S)-Tetrahydrofuran-3-yl-[(trans-4-{[({2-[6-(4-methylpiperazin-1-yl)pyridin-3-yl]quinolin-4-yl}carbonyl)amino]methyl}cyclohexyl)methyl]carbamate] were, in that order, 6.74 and 5.90.
The corresponding values for `CN1CCN(c2ccc(-c3cc(C(=O)NC[C@H]4CC[C@H](CNC(=O)OCC(F)F)CC4)c4ccccc4n3)cn2)CC1` [Example 117, 2,2-Difluoroethyl[(trans-4-{[({2-[6-(4-methylpiperazin-1-yl)pyridin-3-yl]quinolin-4-yl}carbonyl)amino]methyl}cyclohexyl)methyl]carbamate] are 6.39 and 6.02.
The corresponding values for `CN1CCN(c2ccc(-c3cc(C(=O)NC[C@H]4CC[C@H](CNC(=O)OCCF)CC4)c4ccccc4n3)cn2)CC1` [Example 118, 2-Fluoroethyl[(trans-4-{[({2-[6-(4-methylpiperazin-1-yl)pyridin-3-yl]quinolin-4-yl}carbonyl)amino]methyl}cyclohexyl)methyl]carbamate] are 6.19 and 5.79.
As for `CCOC(=O)NC[C@H]1CC[C@H](CNC(=O)c2cc(-c3ccc(N4CCN(C)CC4)nc3)nc3ccccc23)CC1` [Example 119, Ethyl[(trans-4-{[({2-[6-(4-methylpiperazin-1-yl)pyridin-3-yl]quinolin-4-yl}carbonyl)amino]methyl}cyclohexyl)methyl]carbamate], the pIC50 in assay [1] was 6.14; in assay [2] it was 5.65.
The corresponding values for `COCCOC(=O)NC[C@H]1CC[C@H](CNC(=O)c2cc(-c3ccc(N4CCN(C)CC4)nc3)nc3ccccc23)CC1` [Example 120, 2-Methoxyethyl[(trans-4-{[({2-[6-(4-methylpiperazin-1-yl)pyridin-3-yl]quinolin-4-yl}carbonyl)amino]methyl}cyclohexyl)methyl]carbamate] are 5.88 and 5.37.
In the case of `C[C@@H](CO)OC(=O)NC[C@H]1CC[C@H](CNC(=O)c2cc(-c3ccc(N4CCN(C)CC4)nc3)nc3ccccc23)CC1` [Example 133, (1S)-2-Hydroxy-1-methylethyl [(trans-4-{[({2-[6-(4-methylpiperazin-1-yl)pyridin-3-yl]quinolin-4-yl}carbonyl)amino]methyl}cyclohexyl)methyl]carbamate], the negative logarithm of the IC50 (pIC50) was 6.18 in assay [1] and 5.60 in assay [2].
Take `CNS(=O)(=O)c1ccc(-c2cc(C(=O)NC[C@H]3CC[C@H](CNC(=O)OC(C)(C)C)CC3)c3ccccc3n2)cc1` [Example 134, tert-Butyl {[trans-4-({[(2-{4-[(methylamino)sulfonyl]-phenyl}quinolin-4-yl)carbonyl]amino}methyl)cyclohexyl]methyl}-carbamate]: the pIC50 in assay [1] was 7.00; in assay [2], 6.28.
The corresponding values for `CC(C)(C)OC(=O)NC[C@H]1CC[C@H](CNC(=O)c2cc(-c3ccc(S(N)(=O)=O)cc3)nc3ccccc23)CC1` [Example 135, tert-Butyl [(trans-4-{[({2-[4-(aminosulfonyl)phenyl]-quinolin-4-yl}carbonyl)amino]-methyl}-cyclohexyl)methyl]-carbamate] are 7.10 and 6.42.
For the molecule `CNS(=O)(=O)c1ccc(-c2cc(C(=O)NC[C@H]3CC[C@H](CNC(=O)OC4CCOCC4)CC3)c3ccccc3n2)cc1` [Example 136, Tetrahydro-2H-pyran-4-yl{[trans-4-({[(2-{4-[(methylamino)sulfonyl]phenyl}quinolin-4-yl)carbonyl]amino}methyl)cyclohexyl]methyl}-carbamate], the figures for the pIC50 in assay [1] and in assay [2] were 6.21 and 5.51, respectively.
The like results for `CNS(=O)(=O)c1ccc(-c2cc(C(=O)NC[C@H]3CC[C@H](CNC(=O)O[C@H]4CCOC4)CC3)c3ccccc3n2)cc1` [Example 137, (3S)-Tetrahydrofuran-3-yl{[trans-4-({[(2-{4-[(methylamino)sulfonyl]phenyl}quinolin-4-yl)carbonyl]amino}methyl)cyclohexyl]methyl}-carbamate] were, in that order, 6.17 and 5.47.
The like results for `NS(=O)(=O)c1ccc(-c2cc(C(=O)NC[C@H]3CC[C@H](CNC(=O)OC4CCOCC4)CC3)c3ccccc3n2)cc1` [Example 138, Tetrahydro-2H-pyran-4-yl[(trans-4-{[({2-[4-(aminosulfonyl)phenyl]-quinolin-4-yl}carbonyl)amino]-methyl}cyclohexyl)-methyl]carbamate] were, in that order, 6.15 and 5.42.
Take `NS(=O)(=O)c1ccc(-c2cc(C(=O)NC[C@H]3CC[C@H](CNC(=O)O[C@H]4CCOC4)CC3)c3ccccc3n2)cc1` [Example 139, (3S)-Tetrahydrofuran-3-yl[(trans-4-{[({2-[4-(aminosulfonyl)phenyl]-quinolin-4-yl}carbonyl)amino]-methyl}cyclohexyl)-methyl]carbamate]: the negative-log IC50 (pIC50) in assay [1] is 6.28; in assay [2] it was 5.48.
As for `CN(C)S(=O)(=O)c1ccc(-c2cc(C(=O)NC[C@H]3CC[C@H](CNC(=O)OC4CCOCC4)CC3)c3ccccc3n2)cc1` [Example 140, Tetrahydro-2H-pyran-4-yl{[trans-4-({[(2-{4-[(dimethylamino)sulfonyl]phenyl}quinolin-4-yl)carbonyl]amino}-methyl)cyclohexyl]-methyl}carbamate], the pIC50 is 6.02 in assay [1] and 5.48 in assay [2].
As to `CN(C)S(=O)(=O)c1ccc(-c2cc(C(=O)NC[C@H]3CC[C@H](CNC(=O)O[C@H]4CCOC4)CC3)c3ccccc3n2)cc1` [Example 141, (3S)-Tetrahydrofuran-3-yl{[trans-4-({[(2-{4-[(dimethylamino)sulfonyl]phenyl}quinolin-4-yl)carbonyl]amino}-methyl)cyclohexyl]-methyl}carbamate], the pIC50 was 6.04 in assay [1] and 5.41 in assay [2].

The pIC50 is −log10 of the IC50, conventionally taken in molar units.
